Assays:
[1] = AlamarBlue cytotoxicity, BMDM; format: cell-based; details: bone marrow-derived macrophages (BMDM)
Procedure: BMDM were generated in complete RPMI medium as described previously. On day six, the cytotoxicity against 2 × 10^5 cells/ml was tested at increasing concentrations of compounds 1 and 2 for 48 h. Human embryonic kidney HEK 293 T cells (ATCC, Wesel, Germany) were cultured in Dulbecco´s Modified Eagle Medium (DMEM) (Life Technologies, Darmstadt, Germany), with 10% FCS (PAA Laboratories, Germany). According to the standard operating procedures (SOP) within the Collaborative Research Center 630 (SFB 630) 2 × 10^4 HEK 293 T cells/ml were tested at increasing concentrations of compounds 1 and 2 for 48 h. Human liver carcinoma HepG2 cells (ATCC) were cultured in RPMI medium (Gibco) with 10% FCS. 1 × 10^5 cells/ml HepG2 were tested at increasing concentrations of 1 and 2 for 72 h according to the SOPs. The AlamarBlue assay was performed as described above for L. major parasites.

L. major promastigotes [2] = assay: Diff-Quik staining and transmitted light microscopy, cell morphology; format: cell-based, Leishmania major; details: 122.7 μM
Procedure: (§1) L. major parasites harvested from blood agar cultures were washed twice with Dulbecco’s phosphate-buffered saline (DPBS; Invitrogen, Darmstadt, Germany) and centrifuged at 3.000 × g for 10 min. The pellet was suspended in RPMI 1640 medium at a final concentration of 1 × 10^8 cells/ml. Cells were treated with 1% DMSO, 122.7 μM miltefosine (1-hexadecylphorylcholine; apoptosis inducer), or 100 μM of the tested compounds 1 and 2 in a final volume of 200 μl in 96 well plates. Samples were incubated at 27°C in 5% CO2 for several time points between 30 min and 24 h. Transmitted light microscopic, transmission electron microscopic (TEM), and flow cytometric techniques were used to find phenotypic patterns caused by the treatment with the tested compounds.
After incubation for 30 min, 1 h, 2 h, 4 h, and 24 h in the presence of the tested compounds 1 and 2, promastigotes were harvested and centrifuged in a Cytospin 3 centrifuge (Shandon, Frankfurt, Germany) on microscope slides at 253 × g for 5 min at room temperature (RT). Cytospin preparations of cells were stained using the Differential Quick Stain (Diff-Quik) dye (Medion Diagnostics AG, Duedingen, Switzerland), according to the manufacturers’ protocol with some modifications. Diff-Quik stains the leishmanial nuclei and the kinetoplasts dark purple and the cytoplasm light purple allowing the observation of phenotypic changes within the parasite. Briefly, air-dried cells were fixed by dipping the slides 5 times for 3 seconds in fixative solution. Subsequently the slides were stained with Solution I following Solution II (from Diff-Quik kit) and air-dried between each staining steps. Finally, the samples were rapidly dipped once in ultra-pure water (produced by a TKA purification system apparatus, Niederelbert, Germany) to remove excessive staining solutions. The air-dried cells were analyzed by transmitted light microscopy under a 50× objective on a Nikon ECLIPSE 50i microscope equipped with a digital camera (Nikon, Tokyo, Japan). The images were processed using NIS Elements D software (Nikon).

L. major promastigotes [3] = assay: Annexin V / propidium iodide flow cytometry, cell death phenotype; format: cell-based, Leishmania major; details: 122.7 μM
Procedure: as §1
The loss of membrane integrity and translocation of phosphatidylserine (PS) to the outside of the cellular membrane can be determined by annexin V (AV) and propidium iodide (PI) staining. Double staining with AV-fluorescein isothiocyanate (FITC) and PI during flow cytometry analysis leads to discrimination between four populations: double negatives or alive cells (AV^-/PI^-), double positive or late necrotic/late apoptotic cells (AV^+/PI^+), PI-positive and AV-negative or early necrotic cells (AV^-/PI^+), and PI-negative and AV-positive or early apoptotic cells (AV^+/PI^-).
Parasites were harvested after incubation for 6 h, 10 h, and 24 h in the presence of compounds 1, 2 and miltefosine (Cayman Chemical Company, MI, USA), respectively, the latter serving as positive control for the induction of apoptotic cell death. DMSO was used as solvent control. Cell staining was performed using an AV-FITC Apoptosis detection kit (Sigma-Aldrich, Saint Louis, MO, USA). Cells were harvested, washed and suspended in 500 μL of binding buffer, 5 μL of AV-FITC and 10 μl of PI. The cells were incubated for 10 min in the dark at RT. Finally, stained samples were immediately analyzed by flow cytometry using MACSQuant analyzer or a flow cytometer (Becton Dickinson, San José, CA, USA).

L. major promastigotes [4] = tested on: L. major promastigotes; set-up: method as in PMID 24473204; details: positive control; cited from earlier work
L. major amastigotes = tested on: L. major amastigotes; set-up: method as in PMID 24473204; details: positive control; cited from earlier work
L. major promastigotes [5] = tested on: L. major promastigotes; set-up: method as in PMID 25834987; details: cited from earlier work

CCCCCCCCCCCCCCCCOP(=O)([O-])OCC[N+](C)(C)C [Miltefosine, 1-hexadecylphorylcholine, reference compound]
IC50 at 48 h [1]: 65.5 µM
Time after which morphological changes and cell disruption were promoted (L. major promastigotes [2]): 2 h
LL: live cells (AV-/PI-) (L. major promastigotes [3]; 6 h): 35.5%
LR: early apoptotic cells (AV+/PI-) (L. major promastigotes [3]; 6 h): 8.2%
UL: early necrotic cells (AV-/PI+) (L. major promastigotes [3]; 6 h): 11.8%
UR: necrotic/late apoptotic cells (AV+/PI+) (L. major promastigotes [3]; 6 h): 44.5%
LR: early apoptotic cells (AV+/PI-) (L. major promastigotes [3]; 6 h, listed as miltefosine): 8%
UR: necrotic/late apoptotic cells (AV+/PI+) (L. major promastigotes [3]; 6 h, listed as miltefosine): 45%
LL: live cells (AV-/PI-) (L. major promastigotes [3]; 10 h): 15.9%
LR: early apoptotic cells (AV+/PI-) (L. major promastigotes [3]; 10 h): 13.2%
UL: early necrotic cells (AV-/PI+) (L. major promastigotes [3]; 10 h): 11.3%
UR: necrotic/late apoptotic cells (AV+/PI+) (L. major promastigotes [3]; 10 h): 59.6%
LL: live cells (AV-/PI-) (L. major promastigotes [3]; 24 h): 6.3%
LR: early apoptotic cells (AV+/PI-) (L. major promastigotes [3]; 24 h): 13.0%
UL: early necrotic cells (AV-/PI+) (L. major promastigotes [3]; 24 h): 5.5%
UR: necrotic/late apoptotic cells (AV+/PI+) (L. major promastigotes [3]; 24 h): 75.2%
LR: early apoptotic cells (AV+/PI-) (L. major promastigotes [3]; 24 h, listed as miltefosine): 13%
UR: necrotic/late apoptotic cells (AV+/PI+) (L. major promastigotes [3]; 24 h, listed as miltefosine): 75%
Promastigotes with affinity of the parasitic surface towards AV (L. major promastigotes [3]; within 24 h): 88%
IC50 (L. major promastigotes [4]): 36.2 µM
IC50 (L. major amastigotes): 33 µM

CC1(C)C2CCC1(C)C(OC(=O)/C=C/c1ccc(O)c(O)c1)C2 (stereo not shown) [caffeic acid bornyl ester]
Antileishmanial activity against L. major promastigotes (L. major promastigotes [5]): good antileishmanial activity
